Test results: patent US6875451B2, “Compositions and methods for the treatment of primary and metastatic neoplastic diseases using arsenic compounds” (PolaRx Biopharmaceuticals Inc., priority 1997, dated 2005)

Tests used:
Assay type in all cases: cell-based
EKVX = assay: SRB growth assay, 2 days exposure, non-small cell lung cancer
Procedure: (§1) Arsenic trioxide (1 mg/ml, 10 mg/ampoule, manufactured by Taylor Pharmaceuticals, Decatur, Ill.) was tested at five concentrations each at 10-fold dilutions, i.e., 10^−5, 10^−6, 10^−7, 10^−8 and 10^−9 μg/ml.
(§2) The in vitro tests were performed by incubating the test cells in the presence of the indicated concentration of arsenic trioxide under standard culture conditions for a designated period of time, which is followed by a sulforhodamine B (SRB) protein assay to estimate cell viability or growth. The cell lines are organized into subpanels according to the origin of the cell lines, e.g., leukemia, breast cancer, etc. A description of the cell lines and method of testing is described in Monk et al. (1997, Anticancer Drug Des. 12:533-41) and Weinstein et al., (1997, Science 275:343-9), which are incorporated herein in their entirety.
(§3) The measurement of an effect is expressed in Percentage Growth (PG). The measured effect of the compound on a cell line is calculated according to one or the other of the following two expressions: If (Mean ODtest−Mean ODzero)≧0. then PG=100×(Mean ODtest−Mean ODzero)/(Mean ODctrl−Mean ODzero) If (Mean ODtest−Mean ODzero)<0. then PG=100×(Mean ODtest−Mean ODzero)/(Mean ODzero where: • Mean ODzero=the average of optical density measurements of SRB-derived color just before exposure of cells to the test compounds; • Mean ODtest=the average of optical density measurements of SRB-derived color after exposure of cells to the test compound for a designated period of time; and • Mean ODctrl=the average of optical density measurements of SRB-derived color after with no exposure of cells to the test compound for a designated period of time
(§4) The first two columns describe the subpanel (e.g., leukemia) and cell line (e.g., CCRF-CEM) involved. The next two columns list the Mean ODzero and Mean ODctrl; the next five columns list the Mean ODtest for each of five different concentrations. Each concentration is expressed as the log10 (molar or μg/ml). The next five columns list the calculated PGs for each concentration. The response parameters GI50, TGI and LC50 are interpolated values representing the concentrations at which the PG is +50, 0, and −50, respectively. Sometimes these response parameters cannot be obtained by interpolation. If, for instance, all of the PGs in a given row exceed +50, then none of the three parameters can be obtained by interpolation. In such a case, the value given for each response parameter is the highest concentration tested and is preceded by a “>” sign. This practice is extended similarly to the other possible situations where a response parameter cannot be obtained by interpolation.
(§5) In the first set, the cells from 56 different cancer cell lines were exposed to five concentrations of arsenic trioxide continuously for two days prior to performing the SRB assay. In the second set, the cells from 50 different cell lines (a subset of the first 56 cell lines, plus the renal cancer cell line 786-0) were exposed continuously for six days prior to the SRB assay.

NCI-8322M = assay: as above
Procedure: as §1, §2, §3, §4, §5

NCI-H460 = assay: as above
Procedure: as §1, §2, §3, §4, §5

HOP-92 = assay: as above
Procedure: as §1, §2, §3, §4, §5

A549/ATCC = assay: as above
Procedure: as §1, §2, §3, §4, §5

NCI-H23 = assay: as above
Procedure: as §1, §2, §3, §4, §5

NCI-H226 = assay: as above
Procedure: as §1, §2, §3, §4, §5

SW-620 = assay: SRB growth assay, 2 days exposure, colon cancer
Procedure: as §1, §2, §3, §4, §5

COLO 205 = assay: SRB growth assay, 2 days exposure, colon cancer
Procedure: as §1, §2, §3, §4, §5

KM12 = assay: SRB growth assay, 2 days exposure, colon cancer
Procedure: as §1, §2, §3, §4, §5

HCT-116 = assay: SRB growth assay, 2 days exposure, colon cancer
Procedure: as §1, §2, §3, §4, §5

HCT-15 = assay: SRB growth assay, 2 days exposure, colon cancer
Procedure: as §1, §2, §3, §4, §5

HT29 = assay: SRB growth assay, 2 days exposure, colon cancer
Procedure: as §1, §2, §3, §4, §5

arsenic trioxide
TGI (EKVX): >0.0126 ng/mL
Percent Growth (EKVX; log10 conc −4.9): 11%
Percent Growth (EKVX; log10 conc −5.9): 130%
Percent Growth (EKVX; log10 conc −6.9): 127%
Percent Growth (EKVX; log10 conc −7.9): 129%
Percent Growth (EKVX; log10 conc −8.9): 119%
TGI (NCI-8322M): >0.0126 ng/mL
Percent Growth (NCI-8322M; log10 conc −4.9): 61%
Percent Growth (NCI-8322M; log10 conc −5.9): 99%
Percent Growth (NCI-8322M; log10 conc −6.9): 97%
Percent Growth (NCI-8322M; log10 conc −7.9): 106%
Percent Growth (NCI-8322M; log10 conc −8.9): 117%
TGI (NCI-H460): >0.0126 ng/mL
Percent Growth (NCI-H460; log10 conc −4.9): 49%
Percent Growth (NCI-H460; log10 conc −5.9): 92%
Percent Growth (NCI-H460; log10 conc −6.9): 100%
Percent Growth (NCI-H460; log10 conc −7.9): 95%
Percent Growth (NCI-H460; log10 conc −8.9): 89%
TGI (HOP-92): >0.0126 ng/mL
Percent Growth (HOP-92; log10 conc −4.9): 31%
Percent Growth (HOP-92; log10 conc −5.9): 74%
Percent Growth (HOP-92; log10 conc −6.9): 82%
Percent Growth (HOP-92; log10 conc −7.9): 92%
Percent Growth (HOP-92; log10 conc −8.9): 88%
TGI (A549/ATCC): >0.0126 ng/mL
Percent Growth (A549/ATCC; log10 conc −4.9): 69%
Percent Growth (A549/ATCC; log10 conc −5.9): 108%
Percent Growth (A549/ATCC; log10 conc −6.9): 100%
Percent Growth (A549/ATCC; log10 conc −7.9): 102%
Percent Growth (A549/ATCC; log10 conc −8.9): 100%
TGI (NCI-H23): >0.0126 ng/mL
Percent Growth (NCI-H23; log10 conc −4.9): 58%
Percent Growth (NCI-H23; log10 conc −5.9): 101%
Percent Growth (NCI-H23; log10 conc −6.9): 127%
Percent Growth (NCI-H23; log10 conc −7.9): 121%
Percent Growth (NCI-H23; log10 conc −8.9): 115%
TGI (NCI-H226): >0.0126 ng/mL
Percent Growth (NCI-H226; log10 conc −4.9): 92%
Percent Growth (NCI-H226; log10 conc −5.9): 109%
Percent Growth (NCI-H226; log10 conc −6.9): 109%
Percent Growth (NCI-H226; log10 conc −7.9): 96%
Percent Growth (NCI-H226; log10 conc −8.9): 109%
TGI (SW-620): >0.0126 ng/mL
Percent Growth (SW-620; log10 conc −4.9): 16%
Percent Growth (SW-620; log10 conc −5.9): 85%
Percent Growth (SW-620; log10 conc −6.9): 96%
Percent Growth (SW-620; log10 conc −7.9): 98%
Percent Growth (SW-620; log10 conc −8.9): 102%
TGI (COLO 205): >0.0126 ng/mL
Percent Growth (COLO 205; log10 conc −4.9): 57%
Percent Growth (COLO 205; log10 conc −5.9): 104%
Percent Growth (COLO 205; log10 conc −6.9): 117%
Percent Growth (COLO 205; log10 conc −7.9): 102%
Percent Growth (COLO 205; log10 conc −8.9): 103%
TGI (KM12): >0.0126 ng/mL
Percent Growth (KM12; log10 conc −4.9): 68%
Percent Growth (KM12; log10 conc −5.9): 99%
Percent Growth (KM12; log10 conc −6.9): 106%
Percent Growth (KM12; log10 conc −7.9): 98%
Percent Growth (KM12; log10 conc −8.9): 101%
TGI (HCT-116): >0.0126 ng/mL
Percent Growth (HCT-116; log10 conc −4.9): 30%
Percent Growth (HCT-116; log10 conc −5.9): 86%
Percent Growth (HCT-116; log10 conc −6.9): 93%
Percent Growth (HCT-116; log10 conc −7.9): 93%
Percent Growth (HCT-116; log10 conc −8.9): 95%
TGI (HCT-15): >0.0126 ng/mL
Percent Growth (HCT-15; log10 conc −4.9): 20%
Percent Growth (HCT-15; log10 conc −5.9): 93%
Percent Growth (HCT-15; log10 conc −6.9): 104%
Percent Growth (HCT-15; log10 conc −7.9): 100%
Percent Growth (HCT-15; log10 conc −8.9): 113%
TGI (HT29): >0.0126 ng/mL
Percent Growth (HT29; log10 conc −4.9): 15%
Percent Growth (HT29; log10 conc −5.9): 80%
Percent Growth (HT29; log10 conc −6.9): 100%
Percent Growth (HT29; log10 conc −7.9): 104%
Percent Growth (HT29; log10 conc −8.9): 112%
